Measured values published in patent US10426772B2, “Use of ergot alkaloids as an anthelmintic agent” (priority 2016, dated 2019).

Experiments:
S. mansoni = assay: Hepatic shift assay in infected mice; assay type: in vivo, Schistosoma mansoni; settings: intraperitoneal, ergotamine 95, praziquantel 100, methylergometrine 50, lisuride 10, dihydroergotoxine 60 mg/kg, euthanized three hours later
Description: Female Swiss Webster mice were exposed to 200 S. mansoni cerceria (NMRI strain) at between 4-6 weeks old. For hepatic shift assays, infections were allowed to mature to 7 weeks, at which point mice were given test compounds by intraperitoneal injection and euthanized […]. Compounds were solubilized in 50 μL DMSO, and diluted in 200 μL 5% w/v trappsol (Cyclodextrin Technologies Development, THPB-p-31 g)+saline (NaCl 0.9%) solution. Immediately after being euthanized, mice were dissected to remove the liver from the portal vein, and the number of worms recovered from the portal vein, mesenteries and liver was recorded for each mouse.
Several experiments using a murine model of schistosomiasis were carried out in order to test the anthelmintic efficacy of Sm.5HTR ligands in vivo. First, the acute effect of drugs were assessed using a “heptic-shift” assay; mature parasites normally reside within the mesenteric vasculature, and upon exposure to anthelmintics they dislodge and are swept to the liver^12,13 where they may be cleared from the host^14 (FIG. 20B-F).
Given that the current anthelmintic therapy, praziquantel, disrupts worms and results in a rapid shift from the mesenteric vasculature to the liver (Melhorn et al., 1981) (FIG. 20B-F), it was hypothesized that Sm.5HTR ligands that disrupt parasite movement would cause a similar hepatic shift. Compounds were delivered by intraperitoneal injection and mice were euthanized three hours later in order to quantify the number of worms found in the mesentaries, portal vein or liver.

Sm.5HTR [1] = molecular target: Sm.5HTR (Schistosoma mansoni, UniProt A0A173FEI8); assay: cell-based
Description: HEK293 cells (ATCC CRL-1573.3) were cultured in growth media consisting of DMEM supplemented with GlutaMAX (Gibco cat #10566016)+10% heat inactivated fetal bovine serum and penicillin-streptomycin (100 units/mL, ThermoFisher). Stable cell lines for the pGloSensor-22F cAMP Plasmid (Promega) and schistosome 5HTRs in pcDNA3.1(−) were selected with hygromycin (200 μg/mL) and G418 (400 μg/mL). The correct identity of each stably expressed sequence was verified by isolating total RNA from each stable line (TRIzol Reagent, Ambion) and amplifying the sequence of interest with gene specific primers flanking the 5′ and 3′ regions of the cds (SuperScript® III One-Step RT-PCR System, Invitrogen). PCR products were ligated into a TA cloning vector (pGEM-T Easy, Promega) and sequenced.
HEK293 lines stably expressing both the 22F cAMP sensor and Sm.5HTR were cultured in growth media supplemented with 10% dialyzed FRS. For cAMP assays in 96 well format, cells cultured in T-75 flasks were trypsinized (TrypLE Express, Gibco) and plated in solid white 96 well plates (Costar cat #3917) the day prior to assay at a density of 2.5×10^4 cells/well. The following day media was removed and replaced with assay buffer consisting of HBSS buffered with HEPES (20 mM, pH 7.4)+BSA (0.1% w/v) and D-luciferin sodium salt (1 mg/mL, Gold Biotechnology). Plates were equilibrated at room temperature for 1 hour, at which point 3-Isobutyl-1-methylxanthine (IBMX 200 μM, Sigma Aldrich) was added. Plates were equilibrated a further 30 minutes prior to test compound addition. […] Readings performed in 384 well format were modified so that cells were assayed in suspension. Cells were grown to 70% confluence in T-75 flasks, trypsinized and pelleted (300 RCF×5 minutes). Media was removed and cells were resuspended in 25 mL assay buffer supplemented with IBMX (200 μM). A 96 channel semi-automated pipet (Eppendorf epMotion 96) delivered 55 μL of cell suspension per well (5000 cells/well) into solid white 384 plates (Corning 3574).

Sm.5HTR [2] = molecular target: T1, Sm.5HTR (Schistosoma mansoni, UniProt G4V5G4); assay type: cell-based; settings: 10 μM for 30 minutes, washout, 5-HT response 1 hour later (FIGS. 11B-D)
Description: Colors correspond to drug identity in C&D. Data represent mean±s.e.m., n=3 (C-E).
To test putative irreversible antagonists, assays on suspension cells were performed one day post transfection. Cells in a T-75 flask were trypsinized (0.25% w/v) and transferred to a 14 mL tube, centrifuged at 300 RCF, and resuspended in HBSS supplemented with 0.1% BSA, 20 mM HEPES. Compounds were added at 10 μM, and after 30 minutes incubation at room temperature cells were centrifuged (300 RCF, 5 minutes) and resuspended in fresh media. This wash step was repeated, and cells were resuspended in HBSS supplemented with 0.1% BSA, 20 mM HEPES and GloSensor reagent. […]

[3] = test system: S. mansoni schistosomules; assay: Schistosomule contractility assay; assay type: cell-based; settings: Schistosoma mansoni, read-out: IC50, inhibition of 5-HT evoked contractions
Description: FIGS. 14A-14F. […] Effects of selected ligands on schistosomules. […] A contractile cycle is defined when a deviation of ≥20% of the average body length (dashed lines) occurs.
Biomphalaria glabrata (M-line) snails exposed to Schistosoma mansoni miracidia (Strain PR-1) were obtained from BEI Resources (Cat. number NR-21961) and cercaria were shed following exposure to light (1.5 hours). Cercaria were manually transformed into schistosomula by vortexing (3×45 seconds, each separated by 3 minutes on ice) and tails were removed by gradient centrifugation (24 mL Percoll, 4 mL 10×EMEM, 1.5 ml penicillin-streptomycin, 1 mL of 1M HEPES in 0.85% NaCl, 9.5 ml distilled water) at 500 g/15 minutes at 4° C. Supernatant containing tails was discarded, and schistosomules were resuspended in Basch media and incubated (37° C., 5% CO2) overnight before conducting mobility assays. For contractility experiments, somules were incubated in 5-HT free Basch media to resolve a basal contractility rate. […] Schistosomules were incubated in 24 well plates (about 200 schistosomules/0.5 mL media per well) for 30 minutes (37° C./5% CO2) prior to acquiring videos of schistosome movement (1 minute recordings/well) using a Nikon Coolpix 5700 camera affixed to a Nikon Eclipse TS100 microscope (10× objective). The WrmTrck plugin for ImageJ was used to quantify worm mobility (El-Shehabi et al., 2012). Briefly, the major axis of each schistosomule body length was extracted from the raw output of WrmTrck and an average length was determined for the duration of the recording. Contractions were quantified by determining the number of episodes during which the worm body length deviated from the average by over 20%. S. mansoni protocols were approved by the Iowa State University Institutional Biosafety Committee.

Sm.5HTR [4] = molecular target: T1, Sm.5HTR; assay type: cell-based
Description: (§1) HEK293 cells (ATCC CRL-1573.3) were cultured in DMEM supplemented with 10% fetal bovine serum (FBS), penicillin (100 units/mL), streptomycin (100 μg/mL), and L-glutamine (290 μg/mL). Cells were transiently transfected (ViaFect, Promega) as per the manufacturer's protocol at a density of 2×10^6 cells per T-25 cell-culture flask. Cells were transfected with plasmids encoding GloSensor (Promega) and either Sm.5HTR, (Smp_126730, GenBank accession number KF444051.1) or Sm.5HTRL (KX150867), both GPCRs being codon optimized for mammalian expression, or Hs.5HT7a (GenBank accession number NM_000872.4, R&D Systems) subcloned into pCS2(−). Cell culture reagents were from Invitrogen. Epitope tagged constructs were used to verify expression, and untagged constructs used for all luminescence assays.
(§2) For assays performed on adherent cells, HEK-293 cells were transferred one day post transfection to 96 well, solid white plates (Corning, cat #3917) coated with 0.01% poly-L-lysine (Sigma Aldrich) at a density of 5×10^4 cells/well in DMEM supplemented with 1% dialyzed FBS (Gibco). After overnight culture (37° C./5% CO2), media was decanted and replaced with 100 μL/well HBSS supplemented with 0.1% BSA, 20 mM HEPES (pH 7.4) and GloSensor™ reagent. Plates were allowed to equilibrate at room temperature for two hours prior to performing luminescence assays (GloMax-Multi Detection System plate reader, Promega). Conditions for individual assays were described as per figure legends. The standard assay to detect changes in cAMP utilized the F22 sensor in media supplemented with IBMX (200 μM). Ligands were added at a concentration of 20× per well for experiments (i.e., 5 μl of drug solution added to 100 μL of cells). […] For the resazurin reduction assay for cellular viability, cells were incubated with resazurin (final concentration, 10 μM) and tested ligands with fluorescence measurements (560 nm excitation/590 nm emission) made at 1.5 hours intervals.
(§3) The protocol for screening is shown schematically in FIG. 5A. HEK293 cells transiently transfected with either the human 5HT7 receptor (Hs.5HT7R) or the schistosome receptor (Sm.5HTR) were exposed to test ligands in a 96-well plate format. […] Luminescence was then read at a fixed time point (t=60 minutes, FIG. 5A). Hits were assigned as compounds that evoked a ≥50% decrease in luminescence output at the fixed time sampling point (FIG. 5B).

Hs.5HT7R = molecular target: T2, Hs.5HT7R (Homo sapiens, UniProt P34969); assay: GloSensor cAMP assay, HEK293 cells transiently transfected with Hs.5HT7R; assay type: cell-based; settings: inhibition of cAMP generation
T2 construct: host or cells: HEK293 (ATCC CRL-1573.3), transient, pCS2(−), co-transfected with GloSensor
Description: as §1, §2, §3

adult S. mansoni = assay: Movement assay of cultured adult S. mansoni (Example 2); assay type: cell-based; settings: Schistosoma mansoni; for IC50: read-out: IC50, inhibition of serotonin evoked schistosome movement
Text: (§4) Female Swiss Webster mice infected with S. mansoni cerceria (NMRI strain) were sacrificed 49 days post infection by CO2 euthanasia. Adult schistosomes were recovered by perfusion with a solution of 0.85% sodium chloride+0.75% sodium citrate and dissection of the mesenteric vasculature. Harvested schistosomes were washed in RPMI 1640 Medium with GlutaMAX+5% heat inactivated FBS (Gibco) and Penicillin-Streptomycin (final concentration 100 units/mL, ThermoFisher cat #15140122).
For movement assays, worms were cultured 37° C./5% CO2 in vented 100×25 mm petri dishes (ThermoFisher cat #4031) containing 50 mL of media and used between 1-3 days after harvesting. Prior to assessing worm movement, individuals were transferred to a six well dish (4-5 individuals per well) containing 3 mL drug solution in RPMI 1640 supplemented with HEPES (25 mM) and MS (5%). Videos were recorded using a Zeiss Discovery v20 stereomicroscope and a QiCAM 12-bit cooled color CCD camera controlled by metamorph imaging software (version 7.8.1.0). 1 minute recordings were acquired at 4 frames per second, saved as a .TIFF stack, and movement was analyzed using ImageJ software as described in (PMID: 27187180, PMID: 27397763).

adult schistosomes = assay: Egg laying assay, adult schistosome pairs in vitro; assay type: cell-based, Schistosoma mansoni; settings: serotonin 100 μM, forskolin 100 μM, LSD 10 μM, nuciferine 10 μM, ergotamine 5 μM (FIG. 19F); eggs per worm pair/day over five days
Text: as §4
For egg laying assays, adult schistosomes were transferred to 24 well plates the day after harvesting from mice (5 worm pairs in 2 mL media per well). Eggs were counted under a stereomicroscope daily, after which worms were transferred to a new well with fresh drug containing media. Egg counts were recorded for five days, and data processed as the mean number of eggs laid per worm pair/day. Measurements of egg dimensions were quantified using the “analyze>measure” function in ImageJ to record the length and width of individual eggs.

Sm.5HTRL = Sm.5HTRL (Schistosoma mansoni, UniProt A0A173FEI8); assay: GloSensor cAMP assay, HEK293 cells transiently transfected with Sm.5HTRL; assay type: cell-based
Description: as §1, §2

Sm.5HTR (Schistosoma mansoni, UniProt A0A173FEI8), sequence (A0A173FEI8 entry or part of it): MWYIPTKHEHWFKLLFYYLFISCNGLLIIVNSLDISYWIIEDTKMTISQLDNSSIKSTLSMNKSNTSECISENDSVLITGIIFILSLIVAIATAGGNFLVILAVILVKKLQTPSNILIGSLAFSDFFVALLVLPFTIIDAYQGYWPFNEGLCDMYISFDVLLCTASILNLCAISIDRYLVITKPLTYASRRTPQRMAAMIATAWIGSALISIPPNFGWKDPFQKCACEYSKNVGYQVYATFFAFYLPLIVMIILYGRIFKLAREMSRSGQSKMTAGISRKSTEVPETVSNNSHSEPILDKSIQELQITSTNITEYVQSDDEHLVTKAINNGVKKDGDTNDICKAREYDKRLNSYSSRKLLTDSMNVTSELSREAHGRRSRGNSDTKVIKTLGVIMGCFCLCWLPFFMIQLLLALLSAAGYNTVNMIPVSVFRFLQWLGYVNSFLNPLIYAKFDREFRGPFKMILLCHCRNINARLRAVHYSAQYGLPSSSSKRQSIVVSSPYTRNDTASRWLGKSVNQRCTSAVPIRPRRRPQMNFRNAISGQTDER
T1 sequence (G4V5G4 entry or part of it): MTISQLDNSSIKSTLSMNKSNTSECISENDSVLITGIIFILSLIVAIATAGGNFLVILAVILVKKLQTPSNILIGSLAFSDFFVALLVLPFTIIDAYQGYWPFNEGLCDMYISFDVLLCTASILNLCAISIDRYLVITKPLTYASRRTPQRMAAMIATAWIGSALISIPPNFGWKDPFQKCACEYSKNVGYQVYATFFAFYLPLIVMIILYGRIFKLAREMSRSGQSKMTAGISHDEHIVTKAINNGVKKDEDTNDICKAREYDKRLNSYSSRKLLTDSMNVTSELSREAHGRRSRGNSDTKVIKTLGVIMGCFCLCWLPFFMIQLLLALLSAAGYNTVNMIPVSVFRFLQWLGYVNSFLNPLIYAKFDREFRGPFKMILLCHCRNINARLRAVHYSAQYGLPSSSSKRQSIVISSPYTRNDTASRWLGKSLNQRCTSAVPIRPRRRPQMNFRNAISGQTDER
Sm.5HTRL, sequence (A0A173FEI8 entry or part of it): as the sequence (A0A173FEI8 entry or part of it) above
T2 sequence (P34969 1-445 isoform P34969-2): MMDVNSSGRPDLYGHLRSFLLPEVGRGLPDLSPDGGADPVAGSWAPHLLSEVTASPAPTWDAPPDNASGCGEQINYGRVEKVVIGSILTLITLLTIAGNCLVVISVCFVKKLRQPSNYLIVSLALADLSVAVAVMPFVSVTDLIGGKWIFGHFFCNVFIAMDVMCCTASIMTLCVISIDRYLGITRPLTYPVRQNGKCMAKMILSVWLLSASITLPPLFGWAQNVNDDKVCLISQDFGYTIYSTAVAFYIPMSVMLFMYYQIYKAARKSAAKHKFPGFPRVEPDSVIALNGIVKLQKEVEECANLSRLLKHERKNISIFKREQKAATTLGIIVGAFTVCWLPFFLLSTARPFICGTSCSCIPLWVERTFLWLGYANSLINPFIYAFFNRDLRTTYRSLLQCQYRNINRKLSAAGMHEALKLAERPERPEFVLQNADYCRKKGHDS

## CC[C@@H](CO)NC(=O)[C@@H]1C=C2c3cccc4[nH]cc(c34)C[C@H]2N(C)C1 [methylergometrine]
S. mansoni
  % of worm burden found in the liver: 50.6±28.5%
Sm.5HTR [1]; HEK293, agonist read, 45 minutes, read-out: Sm.5HTR Emax
  Emax: 50 ± 17%

## Cc1nc2n(c(=O)c1CCN1CCC(c3noc4cc(F)ccc34)CC1)CCCC2 [risperidone]
Sm.5HTR [2]
  persistence of Sm.5HTR inhibition after antagonist wash-out: long-lasting inhibition

## CC(C)C[C@H]1C(=O)N2CCC[C@H]2[C@]2(O)O[C@](NC(=O)[C@@H]3C=C4c5cccc6[nH]c(Br)c(c56)C[C@H]4N(C)C3)(C(C)C)C(=O)N12 [bromocriptine]
[3]
  IC50: ≤ 1 µM
Sm.5HTR [4]; Sm.5HTR over Hs.5HT7R
  higher selectivity for the parasitic 5-HT receptor: about 10 fold
Sm.5HTR [4]; inhibition of cAMP generation
  potency (IC50) at Sm.5HTR, lower right quadrant of FIG. 13: sub-μM potency
Hs.5HT7R
  potency (IC50) at Hs.5HT7R, lower right quadrant of FIG. 13: supra-μM potency
Adult S. mansoni
  IC50: 0.251 ± 0.067 µM

## CCN(CC)C(=O)[C@@H]1C=C2c3cccc4[nH]c(Br)c(c34)C[C@H]2N(C)C1 [BOL-148, 2-bromo-lysergic acid diethylamide]
Adult S. mansoni
  IC50: 0.029 ± 0.023 µM
Sm.5HTR [1]; 5-HT 500 nM, read-out: Sm.5HTR IC50 (antagonist)
  IC50: 0.1 ± 0.02 µM
Sm.5HTR [1]; FIG. 18C
  agonist activity at Sm.5HTR, in words: Agonist activity is eliminated
Adult schistosomes
  decrease of egg laying: no effect

## CN1C[C@H](CNC(=O)OCc2ccccc2)C[C@@H]2c3cccc4c3c(cn4C)C[C@H]21 [metergoline]
Sm.5HTR [2]
  persistence of Sm.5HTR inhibition after antagonist wash-out: long-lasting inhibition
Sm.5HTR [4]; FIG. 10A
  agonist efficacy at Sm.5HTR, in words: no efficacy
Sm.5HTR [4]; antagonism of 5-HT evoked cAMP accumulation, FIG. 10F, read-out: affinity constants (KB), Schild regression analysis
  Kb: 4.53 µM
Sm.5HTR [4]; increasing doses of ligand, FIGS. 10B-D
  nature of antagonism: right-shift in the 5-HT dose-response relationship: competitive antagonism

## NCCc1c[nH]c2ccc(O)cc12 [5-HT, Serotonin]
Adult S. mansoni; FIG. 19B, read-out: EC50, stimulation of adult schistosome movement
  EC50: 52 ± 2 µM
Adult schistosomes
  decrease of egg laying: 83%
Sm.5HTRL; 5-HT dose response, FIG. 2H, read-out: EC50, activation of Sm.5HTRL
  EC50: 0.2 ± 0.03 µM
Sm.5HTRL; ratio of 5-HT EC50
  greater sensitivity of Sm.5HTRL compared with Sm.5HTR: about 10 fold

## CSc1ccc2c(c1)C(N1CCN(C)CC1)Cc1ccccc1S2 (centres unmarked) [methiothepin]
Sm.5HTR [2]
  persistence of Sm.5HTR inhibition after antagonist wash-out: long-lasting inhibition
Sm.5HTR [4]; methiothepin 10 μM preincubation, 5-HT 10 μM, IBMX 200 μM (FIG. 2G)
  antagonism of 5-HT stimulated cAMP generation: antagonism of 5-HT stimulated cAMP generation

## CCN(CC)C(=O)N[C@H]1C=C2c3cccc4[nH]cc(c34)C[C@H]2N(C)C1 [lisuride]
S. mansoni
  % of worm burden found in the liver: no difference relative to control animals
